Data published in ChEMBL document CHEMBL2203235, “Optimization of a natural product-based class of γ-secretase modulators” (J Med Chem, 2012).

Experiments:
Liver microsomes = assay: Metabolic stability in human liver microsomes at 1 uM after 60 mins by LC/MS/MS analysis; conditions: 1 h
[1] = Modulation of gamma secretase in CHO-2B7 cells assessed as reduction in amyloid beta 40 level after 5 hrs by MSD ELISA; format: cell-based; conditions: Cricetulus griseus, CHO-2B7, 5 h
[2] = Modulation of gamma secretase in CHO-2B7 cells assessed as reduction in amyloid beta 42 level after 5 hrs by MSD ELISA; format: cell-based; conditions: Cricetulus griseus, CHO-2B7, 5 h

| Compound | Stability (Liver microsomes) | IC50 [1] [nM] | IC50 [2] [nM] |
| --- | --- | --- | --- |
| CC(C)[C@@H](OC(=O)N1CCC1)[C@H]1C[C@@H](C)[C@H]2[C@H](O1)[C@H](O)[C@@]1(C)[C@@H]3CC[C@H]4C(C)(C)[C@@H](O[C@H]5CN(CCCC(=O)O)CCO5)CC[C@@]45C[C@@]35CC[C@]21C | Stable | 7500 | 280 |
| CCO[C@@H]([C@H]1C[C@@H](C)[C@H]2[C@H](O1)[C@H](O)[C@@]1(C)[C@@H]3CC[C@H]4C(C)(C)[C@@H](O[C@H]5CN(CCCC(=O)O)CCO5)CC[C@@]45C[C@@]35CC[C@]21C)C(C)(C)O | Stable | 6500 | 630 |
| CCO[C@@H]([C@H]1C[C@@H](C)[C@H]2[C@H](O1)[C@H](O)[C@@]1(C)[C@@H]3CC[C@H]4C(C)(C)[C@@H](OC(=O)NCCN(C)C)CC[C@@]45C[C@@]35CC[C@]21C)C(C)(C)O | Stable | 17000 | 240 |
| CCO[C@@H]([C@H]1C[C@@H](C)[C@H]2[C@H](O1)[C@H](O)[C@@]1(C)[C@@H]3CC[C@H]4C(C)(C)[C@@H](OC(=O)N[C@H]5CCNC5=O)CC[C@@]45C[C@@]35CC[C@]21C)C(C)(C)O | Stable | 2900 | 190 |
| CCO[C@@H]([C@H]1C[C@@H](C)[C@H]2[C@H](O1)[C@H](O)[C@@]1(C)[C@@H]3CC[C@H]4C(C)(C)[C@@H](O[C@H]5CN(CCF)CCO5)CC[C@@]45C[C@@]35CC[C@]21C)C(C)(C)O | Stable | 4700 | 240 |
| CC(C)[C@@H](OC(=O)N1CCC1)[C@H]1C[C@@H](C)[C@H]2[C@H](O1)[C@H](O)[C@@]1(C)[C@@H]3CC[C@H]4C(C)(C)[C@@H](O[C@H]5CN(C(=O)CCC(=O)O)CCO5)CC[C@@]45C[C@@]35CC[C@]21C | Stable | 7200 | 280 |
| CC(C)[C@@H](OC(=O)N1CCC1)[C@H]1C[C@@H](C)[C@H]2[C@H](O1)[C@H](O)[C@@]1(C)[C@@H]3CC[C@H]4C(C)(C)[C@@H](O[C@H]5CN([C@@H]6CCNC6=O)CCO5)CC[C@@]45C[C@@]35CC[C@]21C | Stable | 15000 | 490 |
| CCO[C@@H]([C@H]1C[C@@H](C)[C@H]2[C@H](O1)[C@H](O)[C@@]1(C)[C@@H]3CC[C@H]4C(C)(C)[C@@H](O[C@H]5CN(C6(C)COC6)CCO5)CC[C@@]45C[C@@]35CC[C@]21C)C(C)(C)O | Stable | 5800 | 400 |
| CC(C)[C@@H](OC(=O)N1CCC1)[C@H]1C[C@@H](C)[C@H]2[C@H](O1)[C@H](O)[C@@]1(C)[C@@H]3CC[C@H]4C(C)(C)[C@@H](OC(=O)N(C)CC(=O)O)CC[C@@]45C[C@@]35CC[C@]21C | Stable | 480 | 1790 |
| CCO[C@@H]([C@H]1C[C@@H](C)[C@H]2[C@H](O1)[C@H](O)[C@@]1(C)[C@@H]3CC[C@H]4C(C)(C)[C@@H](O[C@H]5CN(C6CNC6)CCO5)CC[C@@]45C[C@@]35CC[C@]21C)C(C)(C)O | Stable | 2400 | 100 |
| CC(C)[C@@H](OC(=O)N1CCC1)[C@H]1C[C@@H](C)[C@H]2[C@H](O1)[C@H](O)[C@@]1(C)[C@@H]3CC[C@H]4C(C)(C)[C@@H](OC(=O)NC5CN(C)C5)CC[C@@]45C[C@@]35CC[C@]21C | Stable | 6500 | 170 |
| CC(C)[C@@H](OC(=O)N1CCC1)[C@H]1C[C@@H](C)[C@H]2[C@H](O1)[C@H](O)[C@@]1(C)[C@@H]3CC[C@H]4C(C)(C)[C@@H](OC(=O)N[C@H]5CCCNC5=O)CC[C@@]45C[C@@]35CC[C@]21C | Stable | 6400 | 280 |
| CCO[C@@H]([C@H]1C[C@@H](C)[C@H]2[C@H](O1)[C@H](O)[C@@]1(C)[C@@H]3CC[C@H]4C(C)(C)[C@@H](OC(=O)N5CC[C@@H](C(=O)O)C5)CC[C@@]45C[C@@]35CC[C@]21C)C(C)(C)O | Stable | 14000 | 540 |
| CCO[C@@H]([C@H]1C[C@@H](C)[C@H]2[C@H](O1)[C@H](O)[C@@]1(C)[C@@H]3CC[C@H]4C(C)(C)[C@@H](OC(=O)NC5COC5)CC[C@@]45C[C@@]35CC[C@]21C)C(C)(C)O | Stable | 5000 | 140 |
| CC(C)[C@@H](OC(=O)N1CCC1)[C@H]1C[C@@H](C)[C@H]2[C@H](O1)[C@H](O)[C@@]1(C)[C@@H]3CC[C@H]4C(C)(C)[C@@H](OC(=O)N(C)C)CC[C@@]45C[C@@]35CC[C@]21C | Stable | 1400 | 1300 |
| CC(C)[C@@H](OC(=O)N1CCC1)[C@H]1C[C@@H](C)[C@H]2[C@H](O1)[C@H](O)[C@@]1(C)[C@@H]3CC[C@H]4C(C)(C)[C@@H](OC(=O)N[C@H]5CCNC5=O)CC[C@@]45C[C@@]35CC[C@]21C | Stable | 1000 | 400 |
| CC(C)[C@@H](OC(=O)N1CCC1)[C@H]1C[C@@H](C)[C@H]2[C@H](O1)[C@H](O)[C@@]1(C)[C@@H]3CC[C@H]4C(C)(C)[C@@H](OC(=O)N5CC(NCC(F)(F)F)C5)CC[C@@]45C[C@@]35CC[C@]21C | Stable | 11000 | 750 |
| CCO[C@@H]([C@H]1C[C@@H](C)[C@H]2[C@H](O1)[C@H](O)[C@@]1(C)[C@@H]3CC[C@H]4C(C)(C)[C@@H](O[C@H]5CN(CC)CCO5)CC[C@@]45C[C@@]35CC[C@]21C)C(C)(C)O | Stable | 2700 | 210 |
| CCO[C@@H]([C@H]1C[C@@H](C)[C@H]2[C@H](O1)[C@H](O)[C@@]1(C)[C@@H]3CC[C@H]4C(C)(C)[C@@H](O[C@H]5CN(C(=O)C(C)C)CCO5)CC[C@@]45C[C@@]35CC[C@]21C)C(C)(C)O | Stable | 3500 | 170 |
| CCO[C@@H]([C@H]1C[C@@H](C)[C@H]2[C@H](O1)[C@H](O)[C@@]1(C)[C@@H]3CC[C@H]4C(C)(C)[C@@H](OC(=O)NC5CN(C)C5)CC[C@@]45C[C@@]35CC[C@]21C)C(C)(C)O | Stable | 980 | 65 |
| CCO[C@@H]([C@H]1C[C@@H](C)[C@H]2[C@H](O1)[C@H](O)[C@@]1(C)[C@@H]3CC[C@H]4C(C)(C)[C@@H](O[C@H]5CN([C@H]6CCOC6)CCO5)CC[C@@]45C[C@@]35CC[C@]21C)C(C)(C)O | Stable | 6200 | 420 |
| CCO[C@@H]([C@H]1C[C@@H](C)[C@H]2[C@H](O1)[C@H](O)[C@@]1(C)[C@@H]3CC[C@H]4C(C)(C)[C@@H](O[C@H]5CN(CCN(C)C)CCO5)CC[C@@]45C[C@@]35CC[C@]21C)C(C)(C)O | Stable | 3200 | 130 |
| CCO[C@@H]([C@H]1C[C@@H](C)[C@H]2[C@H](O1)[C@H](O)[C@@]1(C)[C@@H]3CC[C@H]4C(C)(C)[C@@H](O[C@H]5CN(CC(=O)N6CCOCC6)CCO5)CC[C@@]45C[C@@]35CC[C@]21C)C(C)(C)O | Stable | 14000 | 230 |
| CC(C)[C@@H](OC(=O)N1CCC1)[C@H]1C[C@@H](C)[C@H]2[C@H](O1)[C@H](O)[C@@]1(C)[C@@H]3CC[C@H]4C(C)(C)[C@@H](O[C@H]5CN(C6COC6)CCO5)CC[C@@]45C[C@@]35CC[C@]21C | Stable | 11000 | 560 |
| CCO[C@@H]([C@H]1C[C@@H](C)[C@H]2[C@H](O1)[C@H](O)[C@@]1(C)[C@@H]3CC[C@H]4C(C)(C)[C@@H](O[C@H]5CN([C@@H]6CCOC6)CCO5)CC[C@@]45C[C@@]35CC[C@]21C)C(C)(C)O | Stable | 3000 | 180 |
| CCO[C@@H]([C@H]1C[C@@H](C)[C@H]2[C@H](O1)[C@H](O)[C@@]1(C)[C@@H]3CC[C@H]4C(C)(C)[C@@H](O[C@H]5CN(CCO)CCO5)CC[C@@]45C[C@@]35CC[C@]21C)C(C)(C)O | Stable | 3700 | 260 |
| CC(C)[C@@H](OC(=O)N1CCC1)[C@H]1C[C@@H](C)[C@H]2[C@H](O1)[C@H](O)[C@@]1(C)[C@@H]3CC[C@H]4C(C)(C)[C@@H](OC(=O)NCCCC(=O)O)CC[C@@]45C[C@@]35CC[C@]21C | Stable | 7200 | 280 |
| CCO[C@@H]([C@H]1C[C@@H](C)[C@H]2[C@H](O1)[C@H](O)[C@@]1(C)[C@@H]3CC[C@H]4C(C)(C)[C@@H](O[C@H]5CN(C(=O)CC6CN(C)C6)CCO5)CC[C@@]45C[C@@]35CC[C@]21C)C(C)(C)O | Stable | 3100 | 150 |
| CNC(=O)O[C@H]1CC[C@]23C[C@]24CC[C@]2(C)[C@@H]5[C@H](O[C@@H]([C@H](OC(=O)N6CCC6)C(C)C)C[C@H]5C)[C@H](O)[C@@]2(C)[C@@H]4CC[C@H]3C1(C)C | Stable | 8700 | 760 |
| CC(C)[C@@H](OC(=O)N1CCC1)[C@H]1C[C@@H](C)[C@H]2[C@H](O1)[C@H](O)[C@@]1(C)[C@@H]3CC[C@H]4C(C)(C)[C@@H](O[C@H]5CN(C(=O)CN6CCC6)CCO5)CC[C@@]45C[C@@]35CC[C@]21C | Stable | 7700 | 110 |
